Values after ≈ are worked out from the molar mass of the structure shown. Like-named read-outs stand apart in the source and are kept apart here.
Legend:
Format in all cases: cell-based
[1] = tested on: E. coli UBMS 88-1 Tet B; assay: microbe, parasite or virus in culture; settings: 18 hours at 35° C.
[2] = tested on: E. coli MC 4100 Tet sens.; assay: MIC, agar dilution method; settings: Escherichia coli, 18 hours at 35° C., read-out: MIC
[3] = tested on: E. coli PRP1 Tet A; assay: microbe, parasite or virus in culture; settings: 18 hours at 35° C.
[4] = tested on: E. coli MC 4100 TNIOC Tet B; assay: microbe, parasite or virus in culture; settings: 18 hours at 35° C.
[5] = tested on: E. coli J3272 Tet C; assay: microbe, parasite or virus in culture
[6] = tested on: E. coli UBMS 89-1 Tet M; assay: microbe, parasite or virus in culture; settings: 18 hours at 35° C.
[7] = tested on: E. coli UBMS 89-2 Tet sens; assay: MIC, agar dilution method; settings: 18 hours at 35° C.
[8] = tested on: E. coli J2175; assay: MIC, agar dilution method; settings: 18 hours at 35° C.
[9] = tested on: E. coli BAJ9003 IMP MUT; assay: microbe, parasite or virus in culture; settings: 18 hours at 35° C.
[10] = tested on: E. coli UBMS 90-4 Tet M; assay: microbe, parasite or virus in culture; settings: 18 hours at 35° C.
[11] = tested on: E. coli UBMS 90-5 sens; assay: MIC, agar dilution method; settings: 18 hours at 35° C.
[12] = tested on: E. coli #311 (MP); assay: MIC, agar dilution method; settings: 18 hours at 35° C.
[13] = tested on: E. coli ATCC 25922; assay: MIC, agar dilution method
[14] = tested on: E. coli J3272 Tet D; assay: microbe, parasite or virus in culture
[15] = tested on: S. mariescens FPOR 8733; assay: MIC, agar dilution method; settings: 18 hours at 35° C.
[16] = tested on: X. maltophilia NEMC 87210; assay: MIC, agar dilution method; settings: Stenotrophomonas maltophilia, NEMC87210, 18 hours at 35° C., read-out: MIC
[17] = tested on: Ps. acruginosa ATCC 27853; assay: MIC, agar dilution method; settings: Ps. acruginosa ATCC 27853; 18 hours at 35° C.; read-out: MIC
[18] = tested on: S. aureus NEMC 8769; assay: MIC, agar dilution method; settings: Staphylococcus aureus, NEMC8769, 18 h
[19] = tested on: S. aureus UBMS 88-4; assay: MIC, agar dilution method
[20] = tested on: S. aureus UBMS 88-5 Tet M; assay: microbe, parasite or virus in culture
[21] = tested on: S. aureus UBMS 88-7 Tet K; assay: microbe, parasite or virus in culture; settings: 18 hours at 35° C.
[22] = tested on: S. aureus UBMS 90-1 Tet M; assay: microbe, parasite or virus in culture; settings: 18 hours at 35° C.
[23] = tested on: S. aureus UBMS 90-3; assay: MIC, agar dilution method
[24] = tested on: S. aureus UBMS 90-2 Tet M; assay: microbe, parasite or virus in culture; settings: 18 hours at 35° C.
[25] = tested on: S. aureus IVES 2943; assay: MIC, agar dilution method
[26] = tested on: S. aureus ROSE (MP); assay: MIC, agar dilution method; settings: 18 hours at 35° C.
[27] = tested on: S. aureus SMITH (MP); assay: MIC, agar dilution method; settings: 18 hours at 35° C.
[28] = tested on: S. aureus IVES 1 983; assay: MIC, agar dilution method
[29] = tested on: S. aureus ATCC 29213; assay: MIC, agar dilution method; settings: 18 hours at 35° C.
[30] = tested on: S. hemolyticus AVHAH 88-3; assay: MIC, agar dilution method
[31] = tested on: Enterococcus 12201; assay: MIC, agar dilution method; settings: 18 hours at 35° C.
[32] = tested on: E. faecalis ATCC 29212; assay: MIC, agar dilution method; settings: Enterococcus faecalis, ATCC29212, 18 h, 18 hours at 35° C.
[33] = Escherichia coli, read-out: MIC

For `CN(C)CC(=O)Nc1c(O)c2c(c(N(C)C)c1Cl)CC1CC3[C@H](N(C)C)C(O)=C(C(N)=O)C(=O)[C@@]3(O)C(O)=C1C2=O` (stereo partly drawn) [B, [4S-(4α,12aα)]-8-Chloro-4,7-(dimethylamino)-9-[[(dimethylamino)acetyl]amino]-1,4,4a,5,5a,6,11,12a-octahydro-3,10,12,12a-tetrahydroxy-1,11-dioxo-2-naphthacenecarboxamide], the MIC ([1]; Escherichia coli, UBMS881TETB, 18 h) was over 32 µg/mL, the MIC [2] was 2 µg/mL (≈ 3.38 µM) and the MIC ([3]; Escherichia coli, PRP1TETA, 18 h) was 16 µg/mL (≈ 27 µM). It also gave an MIC ([4]; Escherichia coli, 18 h) of over 32 µg/mL, an MIC ([5]; Escherichia coli, J3272TETC, 18 h) of 16 µg/mL (≈ 27 µM) and an MIC ([6]; Escherichia coli, UBMS891TETM, 18 h) of 32 µg/mL (≈ 54 µM). For the same molecule, the MIC ([7]; Escherichia coli, UBMS892TETSENS, 18 h, read-out: MIC) was 16 µg/mL (≈ 27 µM), the MIC [8, 33] was 32 µg/mL (≈ 54 µM) and the MIC ([9]; Escherichia coli, BAJ9003IMPMUT, 18 h) was 0.12 µg/mL (≈ 0.203 µM). It also gave an MIC ([10]; Escherichia coli, UBMS904TETM, 18 h) of over 32 µg/mL, an MIC ([11]; Escherichia coli, UBMS905SENS, read-out: MIC) of 32 µg/mL (≈ 54 µM) and an MIC [12, 33] of 4 µg/mL (≈ 6.76 µM). It also gave an MIC ([13]; Escherichia coli, ATCC25922, 18 hours at 35° C., read-out: MIC) of 8 µg/mL (≈ 13.5 µM), an MIC ([14]; Escherichia coli, J3272TETD, 18 h) of 32 µg/mL (≈ 54 µM) and an MIC ([15]; 18 h) of over 32 µg/mL. It also gave an MIC [16] of 0.5 µg/mL (≈ 0.845 µM), an MIC [17] of over 32 µg/mL and an MIC [18] of 0.12 µg/mL (≈ 0.203 µM). The MIC ([19]; Staphylococcus aureus, UBMS884, 18 hours at 35° C., read-out: MIC) was 0.25 µg/mL (≈ 0.422 µM), the MIC ([20]; Staphylococcus aureus, UBMS885TETM, 18 h) was 0.25 µg/mL (≈ 0.422 µM) and the MIC ([21]; Staphylococcus aureus, UBMS887TETK, 18 h) was 2 µg/mL (≈ 3.38 µM). It also gave an MIC ([22]; Staphylococcus aureus, UBMS901TETM, 18 h) of 0.5 µg/mL (≈ 0.845 µM), an MIC ([23]; Staphylococcus aureus, UBMS903, 18 h) of 0.12 µg/mL (≈ 0.203 µM) and an MIC ([24]; Staphylococcus aureus, UBMS902TETM, 18 h) of 0.25 µg/mL (≈ 0.422 µM). For the same molecule, the MIC ([25]; Staphylococcus aureus, IVES2943, 18 h) was 4 µg/mL (≈ 6.76 µM), the MIC ([26]; Staphylococcus aureus, 18 h) was 8 µg/mL (≈ 13.5 µM) and the MIC ([27]; Staphylococcus aureus, 18 h) was 0.12 µg/mL (≈ 0.203 µM). For the same molecule, the MIC ([28]; Staphylococcus aureus, IVES1983, 18 h) was 4 µg/mL (≈ 6.76 µM), the MIC ([29]; Staphylococcus aureus, ATCC29213, 18 h) was 0.25 µg/mL (≈ 0.422 µM) and the MIC ([30]; Streptococcus pyogenes, AVHAH883, 18 hours at 35° C., read-out: MIC) was 0.5 µg/mL (≈ 0.845 µM). For the same molecule, the MIC ([31]; Enterococcus, 12201, 18 h) was 0.12 µg/mL (≈ 0.203 µM) and the MIC [32] was 0.12 µg/mL (≈ 0.203 µM).
Molecule `CN(C)CC(=O)Nc1c(Cl)cc2c(c1O)C(=O)C1=C(O)[C@]3(O)C(=O)C(C(N)=O)=C(O)[C@@H](N(C)C)C3CC1C2` (stereo partly drawn) [C, [4S-(4α,12aα)]-8-Chloro-4-(dimethylamino)-9-[[(dimethylamino)acetyl]amino]-1,4,4a,5,5a,6,11,12a-octahydro-3,10,12,12a-tetrahydroxy-1,11-dioxo-2-naphthacenecarboxamide] has an MIC [1] of 1 µg/mL (≈ 1.82 µM), an MIC [2] of 0.25 µg/mL (≈ 0.455 µM) and an MIC [3] of 8 µg/mL (≈ 14.6 µM). The MIC [4] was 1 µg/mL (≈ 1.82 µM), the MIC ([5]; E. coli J3272 Tet C, 18 hours at 35° C.) was 8 µg/mL (≈ 14.6 µM) and the MIC [6] was 0.25 µg/mL (≈ 0.455 µM). It also gave an MIC [7] of 1 µg/mL (≈ 1.82 µM), an MIC [8] of 1 µg/mL (≈ 1.82 µM) and an MIC [9] of 0.12 µg/mL (≈ 0.219 µM). For the same molecule, the MIC [10] was 0.5 µg/mL (≈ 0.911 µM), the MIC [11] was 1 µg/mL (≈ 1.82 µM) and the MIC [12] was 0.5 µg/mL (≈ 0.911 µM). It also gave an MIC ([13]; 18 hours at 35° C.) of 0.5 µg/mL (≈ 0.911 µM), an MIC ([14]; E. coli J3272 Tet D, 18 hours at 35° C.) of 0.5 µg/mL (≈ 0.911 µM) and an MIC [15] of 8 µg/mL (≈ 14.6 µM). For the same molecule, the MIC [16] was 0.05 µg/mL (≈ 0.0911 µM), the MIC [17] was over 32 µg/mL and the MIC [18] was 0.03 µg/mL (≈ 0.0546 µM). The MIC ([19]; 18 hours at 35° C.) was 0.12 µg/mL (≈ 0.219 µM), the MIC ([20]; S. aureus UBMS 88-5 Tet M, 18 hours at 35° C.) was 2 µg/mL (≈ 3.64 µM) and the MIC [21] was 0.25 µg/mL (≈ 0.455 µM). For the same molecule, the MIC [22] was 4 µg/mL (≈ 7.29 µM), the MIC ([23]; S. aureus UBMS 90-3, 18 hours at 35° C.) was 0.12 µg/mL (≈ 0.219 µM) and the MIC [24] was 1 µg/mL (≈ 1.82 µM). It also gave an MIC ([25]; S. aureus IVES 2943, 18 hours at 35° C.) of 4 µg/mL (≈ 7.29 µM), an MIC [26] of 1 µg/mL (≈ 1.82 µM) and an MIC [27] of 0.12 µg/mL (≈ 0.219 µM). It also gave an MIC ([28]; S. aureus IVES 1 983, 18 hours at 35° C.) of 4 µg/mL (≈ 7.29 µM), an MIC [29] of 0.25 µg/mL (≈ 0.455 µM) and an MIC ([30]; 18 hours at 35° C.) of 0.5 µg/mL (≈ 0.911 µM). The MIC [31] was 8 µg/mL (≈ 14.6 µM) and the MIC [32] was 0.5 µg/mL (≈ 0.911 µM).
